Like-named read-outs stand apart in the source and are kept apart here.
How the values were obtained:
cyclin D1/cdk 4 enzyme = target: T1, cyclin D1/cdk 4 enzyme (Homo sapiens, UniProt P11802); experiment: CDK4 ELISA kinase assay (phospho-Rb ser 795 detection); type: biochemical
T1 construct: made in house; host or cells: Sf9 insect cells, recombinant baculovirus
Outline: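 Wells were coated overnight with GST-Rb C-terminal fragment, then blocked. Compound (10 ug/ml final) and cyclin/CDK enzyme from baculovirus-infected Sf9 cells with 200 μM ATP reacted 1 h at 30° C. Ser795 phosphorylation was detected by ELISA at 450 nm.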

BT474 = experiment: Cytotoxicity assay (SRB), BT474; type: cell-based; details: Homo sapiens, BT-474, 144 h, read-out: In Vitro Cellular Activity IC50 BT474
Outline: (§1)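 Overnight-seeded monolayers (4000–12000 cells/well by line) receive compound in 5% FBS medium at 37 °C, 7% CO2. After 3 d, or 6 d for BT474, cellular protein is fixed with cold TCA, stained with SRB and read at 540 nm against untreated wells.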

cyclin B/CDK1 enzyme = target: T2, cyclin B/CDK1 enzyme (Homo sapiens, UniProt P06493); experiment: CDK1 ELISA kinase assay (phospho-Rb ser 795 detection); type: biochemical
T2 construct: purchased New England BioLabs; host or cells: Sf9 insect cells, recombinant baculovirus
Protocol: • 1. High-binding ELISA microtiter plates (Costar) were coated with 40 μl of the kinase substrate (GST fusion of C-terminal fragment of the retinoblastoma susceptibility gene product) diluted to 10 μg/ml in tris-buffered saline (TBS), overnight at 4° C. • 2. Non-specific binding sites were blocked for 1 hour at 4° C. with Superblock in TBS (Pierce), and the plates rinsed with water. • 3. For the screen, 1.5 μl of test compound (200 μg/ml stock in 20% DMSO/20 mM HEPES, pH 7.5) was added to each well. Final dose of the test compound in the assay was 10 ug/ml. […] The kinase reaction (30 μl) was dispensed into each well. Reactions contained 200 μM ATP, 0.5 mg/ml bovine serum albumin (BSA; Sigma), and 0.5 μl partially purified cyclin D1/cdk 4 enzyme*. The enzyme complex is expressed in insect cells (Sf9) infected with recombinant baculovirus and partially purified using ammonium sulfate fractionation. Reaction volumes were adjusted to 30 μl with kinase assay buffer (50 mM HEPES, pH 7.5, 10 mM MgCl2, 5% glycerol, 10 mM 2-mercaptoethanol). • *: For CDK2 assay, 1.0 μl cyclin E/CDK2 enzyme (diluted 1:1000 in kinase assay buffer) was used. The enzyme is isolated from insect cells (Sf9) infected with recombinant baculovirus and partially purified using ammonium sulfate fractionation. For CDK1 assay, 0.08 μl cyclin B/CDK1 enzyme [New England BioLabs; the enzyme is isolated from insect cells (Sf9) infected with recombinant baculovirus carrying human cdc 2 and human cyclin B] was used.
[…] • 5. Plates were incubated at 30° C. for 1 hour. • 6. The reaction mixture was removed by aspiration and replaced with 250 μl TBS containing 0.1% Tween-20 and 5% nonfat dry milk (blocking buffer). The plates were incubated at 4° C. for 1 hour. • 7. The blocking buffer was removed and replaced with 50 μl of the primary antibody [anti-phospho-Rb ser 795 (New England BioLabs) diluted 1:1000 in blocking buffer]. Incubation was at 4° C. for 16-20 hours. • 8. The wells were rinsed 3 times with 250 μl of TBS containing 0.1% Tween-20 followed by the addition of 50 μl of secondary antibody [anti-rabbit IgG conjugated to horseradish peroxidase (Amersham Life Science) diluted 1:1000 in blocking buffer]. • 9. After a 1 hour incubation at room temperature, the wells were rinsed 3 times with 250 μl of TBS/0.1% Tween 20. • 10. TMB (3,3′,5,5′-tetramethylbenzidine dihydrochloride) substrate solution (100 μl; Pierce) was added to each well and the color development reaction allowed to proceed 5-10 minutes at room temperature with shaking. The reaction was stopped by the addition of 2N sulfuric acid (100 μl) and the absorbance values read at 450 nm in a microplate reader (Molecular Devices). Analysis of Results: • 1. The percentage of the absorbance value in wells containing the test compound relative to control wells (no test agent) was determined. • 2. IC50 values of selected compounds were determined from inhibition curves, after subtracting background values (no substrate).

LoVo = experiment: Cytotoxicity assay (SRB), LoVo; type: cell-based; details: Homo sapiens, LoVo, 72 h, read-out: In Vitro Cellular Activity IC50 LOVO
Outline: as §1

HCT-116 = experiment: Cytotoxicity assay (SRB), HCT-116; type: cell-based; details: Homo sapiens, HCT-116, 72 h, read-out: In Vitro Cellular Activity IC50 HCT116
Outline: as §1

MCF-7 = experiment: Cytotoxicity assay (SRB), MCF-7; type: cell-based; details: Homo sapiens, MCF7, 72 h, read-out: In Vitro Cellular Activity IC50 MCF-7
Outline: as §1

[1] = In Vitro Enzyme Assay, cyclin D1/cdk 4, read-out: CDK4 IC50
[2] = In Vitro Enzyme Assays, 200 μM ATP, read-out: CDK4 IC50
[3] = In Vitro Enzyme Assays, read-out: CDK1 IC50

T2 sequence (P06493 whole entry): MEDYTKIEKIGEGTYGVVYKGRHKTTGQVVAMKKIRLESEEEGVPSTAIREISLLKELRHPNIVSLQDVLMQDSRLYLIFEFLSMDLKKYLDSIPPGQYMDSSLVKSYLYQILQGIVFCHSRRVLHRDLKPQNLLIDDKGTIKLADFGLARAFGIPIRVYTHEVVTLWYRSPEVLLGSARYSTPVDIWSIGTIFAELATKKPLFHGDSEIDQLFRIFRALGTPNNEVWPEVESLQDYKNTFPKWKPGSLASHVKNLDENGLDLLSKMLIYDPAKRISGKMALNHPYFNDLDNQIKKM
T2 sequence (P14635 whole entry partner): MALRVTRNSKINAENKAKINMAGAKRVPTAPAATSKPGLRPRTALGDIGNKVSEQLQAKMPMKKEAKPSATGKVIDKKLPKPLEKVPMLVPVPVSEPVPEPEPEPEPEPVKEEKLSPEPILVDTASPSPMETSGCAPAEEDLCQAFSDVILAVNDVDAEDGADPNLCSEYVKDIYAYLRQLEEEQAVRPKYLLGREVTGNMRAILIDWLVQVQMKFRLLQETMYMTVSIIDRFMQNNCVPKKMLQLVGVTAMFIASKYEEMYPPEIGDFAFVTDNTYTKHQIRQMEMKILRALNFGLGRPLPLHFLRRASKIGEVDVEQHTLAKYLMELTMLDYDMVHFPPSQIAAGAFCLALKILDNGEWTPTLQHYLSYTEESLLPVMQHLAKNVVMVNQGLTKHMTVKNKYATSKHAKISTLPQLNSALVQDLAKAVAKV
T1 sequence (P11802 whole entry, species assumed): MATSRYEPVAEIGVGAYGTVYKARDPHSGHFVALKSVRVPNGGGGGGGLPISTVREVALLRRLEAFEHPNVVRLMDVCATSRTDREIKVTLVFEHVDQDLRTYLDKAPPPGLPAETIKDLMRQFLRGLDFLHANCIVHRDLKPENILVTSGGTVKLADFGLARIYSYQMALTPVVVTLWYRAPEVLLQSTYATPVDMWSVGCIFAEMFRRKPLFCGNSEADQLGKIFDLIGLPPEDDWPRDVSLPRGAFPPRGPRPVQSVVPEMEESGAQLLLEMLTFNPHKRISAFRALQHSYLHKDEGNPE
T1 sequence (P24385 whole entry partner, species assumed): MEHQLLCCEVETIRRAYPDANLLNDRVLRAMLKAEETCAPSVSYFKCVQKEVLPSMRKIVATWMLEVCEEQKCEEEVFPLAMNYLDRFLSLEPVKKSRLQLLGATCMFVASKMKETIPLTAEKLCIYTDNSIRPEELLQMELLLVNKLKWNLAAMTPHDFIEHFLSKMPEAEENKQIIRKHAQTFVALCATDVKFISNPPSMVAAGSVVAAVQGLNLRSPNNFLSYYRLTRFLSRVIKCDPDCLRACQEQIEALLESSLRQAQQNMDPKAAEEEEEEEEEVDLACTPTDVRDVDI

| Compound | IC50 (cyclin D1/cdk 4 enzyme; [1]) [µM] | IC50 (BT474; BT474 cells, 6 days, SRB) [µM] | IC50 (LoVo; LoVo cells, 3 days, SRB) [µM] | IC50 (BT474; BT474 cells, SRB, 6 days) [µM] | IC50 (HCT-116; HCT116 cells, SRB, three days) [µM] | IC50 (cyclin B/CDK1 enzyme; [3]) [µM] | IC50 (MCF-7; MCF-7 cells, SRB, three days) [µM] | IC50 (LoVo; LoVo cells, SRB, three days) [µM] | IC50 (HCT-116; HCT116 cells, 3 days, SRB) [µM] | IC50 (MCF-7; MCF-7 cells, 3 days, SRB) [µM] | other results |
| --- | --- | --- | --- | --- | --- | --- | --- | --- | --- | --- | --- |
| CN1CCN(c2ccc(NC=C3C(=O)NC(=O)c4ccc(-c5ccccc5)cc43)cc2)CC1 [Example 831, 4-{[4-(4-Methyl-piperazin-1-yl)-phenylamino]-methylene}-6-phenyl-4H-isoquinoline-1,3-dione] | 0.19 | 3.2 | 2.8 |  |  |  |  |  |  |  | IC50 (cyclin B/CDK1 enzyme; In Vitro Enzyme Assay, cyclin B/CDK1, read-out: CDK1 IC50): > 50 µM |
| CN1CC2CC1CN2c1ccc(NC=C2C(=O)NC(=O)c3ccc(I)cc32)cc1 (stereo not drawn) [Example 221, 6-Iodo-4-{[4-(5-methyl-2,5-diaza-bicyclo[2.2.1]hept-2-yl)-phenylamino]-methylene}-4H-isoquinoline-1,3-dione] |  |  |  | 3.2 | 1.9 | > 50 | 2.6 | 3.2 |  |  | IC50 (cyclin D1/cdk 4 enzyme; [2]): 0.32 µM |
| O=C1NC(=O)c2ccc(-c3ccoc3)cc2/C1=C/NCc1ccc(OC(F)F)c(O)c1 [Example 199, (4Z)-4-({[4-(Difluoromethoxy)-3-hydroxybenzyl]amino}methylene)-6-(3-furyl)isoquinoline-1,3(2H,4H)-dione] |  |  |  | 1.3 | 6.4 | > 50 | 1.9 | 4.1 |  |  | IC50 (cyclin D1/cdk 4 enzyme; [2]): < 0.005 µM |
| CC1CN(c2ccc(N/C=C3\C(=O)NC(=O)c4ccc(I)cc43)cc2)CCN1C (stereo not drawn) [Example 248, (4Z)-4-({[4-(3,4-Dimethylpiperazin-1-yl)phenyl]amino}methylene)-6-iodoisoquinoline-1,3(2H,4H)-dione] |  |  |  | 3 |  | > 50 |  | 2.8 |  |  | IC50 (cyclin D1/cdk 4 enzyme; [2]): 2.7 µM |
| O=C1NC(=O)c2ccc(N3CCCCC3)cc2/C1=C/Nc1ccc(CN2CCCCC2)cc1 [Example 118, (4Z)-6-Piperidin-1-yl-4-({[4-(piperidin-1-ylmethyl)phenyl]amino}methylene)isoquinoline-1,3(2H,4H)-dione] |  |  |  | 4 | 2.7 | > 50 | 4.4 | 3.2 |  |  |  |
| O=C1NC(=O)c2ccc([N+](=O)[O-])cc2/C1=C/Nc1ccc(CN2CCCCC2)cc1 [compound 42] |  |  |  | 4 | 3 | > 50 | 7.6 | 5.9 |  |  |  |
| C[C@@H]1CN(c2ccc(N/C=C3\C(=O)NC(=O)c4ccc(I)cc43)cc2)C[C@H](C)N1 [Example 216, (4Z)-4-({[4-(3,5-Dimethylpiperazin-1-yl)phenyl]amino}methylene)-6-iodoisoquinoline-1,3(2H,4H)-dione] |  |  |  | 1.1 |  | > 50 |  | 1.3 |  |  |  |
| CN1CCN(c2ccc(NC=C3C(=O)NC(=O)c4ccc(C=CCn5ccnc5)cc43)cc2)CC1 [Example 679, 6-(3-Imidazol-1-yl-propenyl)-4-{[4-(4-methyl-piperazin-1-yl)-phenylamino]-methylene}-4H-isoquinoline-1,3-dione] | 4.9 | 15.5 | 6.9 |  |  |  |  |  | 6.4 | 9.2 |  |
| CN1CCN(c2ccc(NC=C3C(=O)NC(=O)c4ccc(C=CCO)cc43)cc2)CC1 [Example 724, 6-(3-Hydroxy-propenyl)-4-{[4-(4-methyl-piperazin-1-yl)-phenylamino]-methylene}-4H-isoquinoline-1,3-dione] | 3.6 | 16.9 | 10.4 |  |  |  |  |  | 5.8 | 14.8 |  |
| CN1CCN(c2ccc(NC=C3C(=O)NC(=O)c4ccc(-c5ccccc5Cl)cc43)cc2)CC1 [Example 691, 6-(2-Chloro-phenyl)-4-{[4-(4-methyl-piperazin-1-yl)-phenylamino]-methylene}-4H-isoquinoline-1,3-dione] | 8.3 | 3 | 2.2 |  |  |  |  |  | 1.3 | 2.8 |  |
| CN1CCN(c2ccc(N/C=C3\C(=O)NC(=O)c4ccc(-n5cccc5)cc43)cc2)CC1 [compound 60] |  |  |  |  |  | > 50 |  |  |  |  | IC50 (BT474): 2 µM; IC50 (HCT-116): 1.5 µM; IC50 (MCF-7): 2.3 µM; IC50 (LoVo): 2 µM |
| COc1ccc(-c2ccc3c(c2)/C(=C/Nc2ccc(CN4CCCCC4)cc2)C(=O)NC3=O)cc1 [Example 116, (4Z)-6-(4-Methoxyphenyl)-4-({[4-(piperidin-1-ylmethyl)phenyl]amino}methylene)-isoquinoline-1,3(2H,4H)-dione] |  |  |  | 2.8 | 1.3 | > 50 | 3.2 | 2.8 |  |  |  |
| NS(=O)(=O)c1ccc(CNC=C2C(=O)NC(=O)c3ccc(-c4cccc(Cl)c4)cc32)cc1 [Example 750, 4-({[6-(3-Chloro-phenyl)-1,3-dioxo-2,3-dihydro-1H-isoquinolin-4-ylidenemethyl]-amino}-methyl)-benzenesulfonamide] | 2.5 | > 50 | 27.8 |  |  |  |  |  | 29.1 | 39 |  |
| N#CCc1ccc(NC=C2C(=O)NC(=O)c3ccc(-c4ccc(F)cc4)cc32)cc1 [Example 704, (4-{[6-(4-Fluoro-phenyl)-1,3-dioxo-2,3-dihydro-1H-isoquinolin-4-ylidenemethyl]-amino}-phenyl)-acetonitrile] | 7 | 26.4 | > 50 |  |  |  |  |  | > 50 | 28.6 |  |
| CC(=O)c1ccccc1-c1ccc2c(c1)C(=CNc1ccc(CC#N)cc1)C(=O)NC2=O [Example 711, (4-{[6-(2-Acetyl-phenyl)-1,3-dioxo-2,3-dihydro-1H-isoquinolin-4-ylidenemethyl]-amino}-phenyl)-acetonitrile] | 9.8 | 46.7 | > 50 |  |  |  |  |  | > 50 | > 50 |  |
| NS(=O)(=O)c1ccc(CNC=C2C(=O)NC(=O)c3ccc(-c4csc5ccccc45)cc32)cc1 [Example 636, 4-{[(6-Benzo[b]thiophen-3-yl-1,3-dioxo-2,3-dihydro-1H-isoquinolin-4-ylidenemethyl)-amino]-methyl}-benzenesulfonamide] | 3.4 | 39.7 | 15.8 |  |  |  |  |  | 31.2 | 18.4 |  |

Reference: patent publication US7713994B2 (Wyeth LLC, priority 2005, dated 2010)
